This note sets out measurements from patent US20240124483A1, “Methods for the Treatment of Fibrotic Disease” (SHY Therapeutics, LLC, priority 2021, published 2024).

Each structure is given as a SMILES string. Like-named read-outs stand apart in the source and are kept apart here.

Assay [1] concerns the target KRas wild type (Homo sapiens (Human), UniProt P01116). As to the kind of experiment: Ras GTP Binding Domain Inhibition Assay, KRas wild type. How it is done:
(§1) A Ras Superfamily Activity Assay (as disclosed in International Application No. PCT/US2018/038613, filed Jun. 20, 2018, which is incorporated by reference in its entirety) was used as a specific assay to evaluate compounds against the following for the following Ras Superfamily proteins: KRas wild type, KRas Q61H mutant, KRas G12C mutant, KRas G12D mutant, Rac-1, and Rho-A.
(§2) Buffer-I: • 25 mM Tris-HCl, pH 7.4 • 27 mM KCl • 137 mM NaCl • 1 mM MgCl2 • 1 mM DTT
(§3) Buffer-II: • 50 mM Tris-HCl, pH 7.0 • 1 mM MgCl2 • 1 mM DTT
(§4) The small GTPases proteins: KRas wild type. KRas Q61H mutant, KRas G12C mutant, KRas G12D mutants, Rac-1, and Rho-A were expressed as His-tagged proteins. In addition, the Guanosine nucleotide Exchange Factor (GEF) Sos protein (residues 556-1049) was expressed as a His-tagged protein. In cells, the guanine nucleotide exchange factor Sos protein promotes activation of Ras proteins by stimulating an exchange of GDP for GTP. The inclusion of Sos to the Ras GTP binding domain inhibition assay may be considered as an alternative representation of physiological cellular conditions for evaluating the inhibitory activity of some of the tested small molecules.
(§5) For the assay, all purified small GTPases proteins were diluted in Buffer-I or Buffer-II to a final concentration of 10-30 μg/mL. 200 μL of each diluted protein was added to a nickel-coated 96-well plate and incubated overnight at 4° C. Then the protein solution was discarded and 200 μL of Buffer-I or Buffer-II was added to each well in the presence of 1% DMSO. Compounds to be tested were added to the protein-coated wells at final concentration of 20 μM, and incubated for 3 hours at room temperature with and without 10-30 μg/mL of Sos added to the final hour of the incubation. When performing IC50 measurements a serial dilution of all tested concentrations was added. Then Cy3-GTP or Cy5-GTP was added to each well to a final concentration of 100 nM. The labeled GTP was incubated for 45 minutes at room temperature. Following GTP incubation, wells were washed 3× in Buffer-I or Buffer-II and 200 μL of Buffer-I or Buffer-II was added to each well. Following washes, the amount of bound labeled-GTP was measured using a SpectraMax M3 (Molecular Devices).

Assay [2] has as its target Rho-A (Homo sapiens (Human), UniProt P61586). As to the kind of experiment: Ras GTP Binding Domain Inhibition Assay, Rho-A. How it is done:
as §1, §2, §3, §4, §5

The target of assay [3] is KRas G12C mutant (Homo sapiens (Human), UniProt P01116, G12C). As to the kind of experiment: Ras GTP Binding Domain Inhibition Assay, KRas G12C mutant. How it is done:
as §1, §2, §3, §4, §5

For assay [4], the target named is Rac-1 (Homo sapiens (Human), UniProt P63000). As to the kind of experiment: Ras GTP Binding Domain Inhibition Assay, Rac-1. As to the method:
as §1, §2, §3, §4, §5

Assay [5] concerns JNK. Briefly: JNK Activation Assay in Panc-1 (western blot). The assay is classed as cell-based, Human. Also noted: key: Y = yes; N = No. As to conditions: at 10 μM. As to the method: Cell lines: Human tumor-derived pancreatic cancer cell line Panc-1 and mouse muscle myoblast C2C12 were purchased from American Type Culture Collection and grown in complete DMEM-High Glucose, supplemented with penicillin (100 U/mL), streptomycin (100 μg/mL), and 10% heat-inactivated FBS at 37° C. in a humidified incubator with 5% CO2.
Method: Cells were plated at 350000 cells/well density in a 12-well plate, allowed 3 hours to adhere to the plate, then starved in the appropriate medium in the presence of 0.5% FBS overnight. The small molecules to be tested were added to the cells in the final concentration of 10 μM in the presence of 0.3% DMSO for 3 hours incubation at 37° C. For IC50 value determination, serial dilutions of compounds were added to cells under the same conditions. Next, Panc-1 cells were stimulated with 10 ng/ml TGF-b1 for 1 hour, and C2C12 cells were stimulated with 10 ng/ml TGF-b1 for 20 minutes (recombinant human TGF-b1, R&D Systems). After stimulation cells were lysed with lysis buffer containing 1% Triton X-100, EDTA, and Halt™ Protease & Phosphatase Inhibitor Cocktail (Thermo Scientific). Protein concentration was assessed by BCA protein assay (Thermo Scientific). Phosphorylation level of JNK was determined by western blot.
Western blot protocol: Equal amounts of protein (15-50 μg) were separated by SDS-PAGE and transferred to nitrocellulose membranes (Invitrogen by Thermo Fisher Scientific). The membrane was stained with Ponceau S Stain (Boston BioProducts) to verify uniform protein loading. Membranes were blocked with 10% milk and phosphorylation levels of Smad2, Smad3, INK and p38 were assessed by incubating overnight at 4° C. with the following antibody: Phospho-SAPK/JNK (Thr183/Tyr185), from Cell Signaling Technology. Then the membranes were incubated with HRP-conjugated secondary antibody (Jackson Immunoresearch, West Grove, PA). Bands were incubated in Amersham ECL Prime Western Blotting Detection Reagent (GE Healthcare) and visualized using the ChemiDoc MP imaging system (Bio-Rad).
Background: In western blotting, separated proteins are transferred to a membrane and probed.

The mark [6] stands for this setting: + SOS, read-out: KRas wild type + SOS: % inh.
Where [7] appears, read: without SOS, read-out: KRas wild type: % inh.
Setting [8] is: + SOS, read-out: Rho-A + SOS: % inh.
Setting [9] is: without SOS, read-out: Rho-A: % inh.
The mark [10] stands for this setting: + SOS, read-out: KRas G12C mutant + SOS: % inh.
Where [11] appears, read: without SOS, read-out: KRas G12C mutant: % inh.
[12] abbreviates: + SOS, read-out: Rac-1 + SOS: % inh.
[13] abbreviates: without SOS, read-out: Rac-1: % inh.

KRas G12C mutant, sequence (P01116 other isoform, or with tags, fused parts or gaps G12C): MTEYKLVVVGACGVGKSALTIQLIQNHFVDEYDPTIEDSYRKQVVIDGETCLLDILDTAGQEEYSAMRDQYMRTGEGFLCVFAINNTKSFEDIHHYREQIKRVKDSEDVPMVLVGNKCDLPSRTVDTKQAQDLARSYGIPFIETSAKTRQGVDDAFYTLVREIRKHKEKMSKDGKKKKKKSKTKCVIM
Rho-A, sequence (P61586 whole entry, species assumed, the tested form may be a part): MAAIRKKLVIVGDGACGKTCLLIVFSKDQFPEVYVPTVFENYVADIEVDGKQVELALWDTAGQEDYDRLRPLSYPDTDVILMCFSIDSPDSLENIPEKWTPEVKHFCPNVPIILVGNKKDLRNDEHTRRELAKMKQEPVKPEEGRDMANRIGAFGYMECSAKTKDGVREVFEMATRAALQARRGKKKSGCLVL
KRas wild type, sequence (P01116 other isoform, or with tags, fused parts or gaps): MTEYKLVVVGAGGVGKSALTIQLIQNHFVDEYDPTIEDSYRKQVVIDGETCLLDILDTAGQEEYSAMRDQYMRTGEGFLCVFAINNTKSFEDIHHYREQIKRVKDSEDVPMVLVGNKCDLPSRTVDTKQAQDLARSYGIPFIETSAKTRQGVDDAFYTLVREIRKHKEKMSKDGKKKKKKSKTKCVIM

In the case of `CO[C@H]1CC[C@@H](Nc2nc(-c3nccn3C)nc3sc(-c4ccn(C)n4)c(-c4ccccc4)c23)C1` (racemic) [Compound 5, rac-N-((1R,3S)-3-Methoxycyclopentyl)-2-(1-methyl-1H-imidazol-2-yl)-6-(1-methyl-1H-pyrazol-3-yl)-5-phenylthieno[2,3-d]pyrimidin-4-amine], the inhibition at 20 µM in assay [1] (setting [6]) fell in the range of 76 to 100%; in assay [1] (setting [7]) it was 26 to 45%; in assay [2] (setting [8]), 76 to 100%; in assay [2] (setting [9]) it was 46 to 75%; in assay [3] (setting [10]), 76 to 100%; in assay [3] (setting [11]) it was 26 to 45%. Moreover, the inhibition at 20 µM in assay [4] (setting [12]) and in assay [4] (setting [13]) was 46 to 75% throughout. In addition, the “Activation of JNK in PANC-1” value in assay [5] is on record as “Y”.
With `COc1cccc(-c2sc3nc(-c4nccn4C)nc(NC4CCC(OC)C4)c3c2C)c1F` (racemic) [Compound 10, rac-6-(2-Fluoro-3-methoxyphenyl)-N-((1R,3S)-3-methoxycyclopentyl)-5-methyl-2-(1-methyl-1H-imidazol-2-yl)thieno[2,3-d]pyrimidin-4-amine and rac-6-(2-Fluoro-3-methoxyphenyl)-N-((1R,3R)-3-methoxycyclopentyl)-5-methyl-2-(1-methyl-1H-imidazol-2-yl)thieno[2,3-d]pyrimidin-4-amine], the inhibition at 20 µM lay within 46 to 75% in assay [1] (setting [6]); 46 to 75% in assay [1] (setting [7]); 76 to 100% in assay [2] (setting [8]); 76 to 100% in assay [2] (setting [9]); 46 to 75% in assay [3] (setting [10]); 76 to 100% in assay [3] (setting [11]). For the same compound, the inhibition at 20 µM in assay [4] (setting [12]) and in assay [4] (setting [13]) was 46 to 75% each time. In assay [5], the “Activation of JNK in PANC-1” value is given as “Y”.
On to `CO[C@H]1CC[C@@H](Nc2nc(-c3nccn3C)nc3sc(-c4ccn(C(C)C)n4)c(C)c23)C1` (racemic) [Compound 12, rac-6-(1-Isopropyl-1H-pyrazol-3-yl)-N-((1R,3S)-3-methoxycyclopentyl)-5-methyl-2-(1-methyl-1H-imidazol-2-yl)thieno[2,3-d]pyrimidin-4-amine], for which the inhibition at 20 µM in assay [1] (setting [6]) was in the range of 76 to 100%; in assay [1] (setting [7]) it was 76 to 100%; in assay [2] (setting [8]), 76 to 100%; in assay [2] (setting [9]) it was 76 to 100%; in assay [3] (setting [10]) it was 76 to 100%; in assay [3] (setting [11]), 46 to 75%. Besides, the inhibition at 20 µM in assay [4] (setting [12]) and in assay [4] (setting [13]) was 46 to 75% in each case. The “Activation of JNK in PANC-1” value in assay [5] is “Y”.
Turning to `COC1CCCN(c2nc(-c3nccn3C)nc3sc(-c4ccn(C(C)C)n4)c(C)c23)C1` (racemic) [Compound 14, rac-6-(1-Isopropyl-1H-pyrazol-3-yl)-4-(3-methoxypiperidin-1-yl)-5-methyl-2-(1-methyl-1H-imidazol-2-yl)thieno[2,3-d]pyrimidine], the inhibition at 20 µM in assay [1] (setting [6]) was 76 to 100%; in assay [1] (setting [7]) it was 0%; in assay [2] (setting [9]), 26 to 45%; in assay [3] (setting [10]) it was 76 to 100%; in assay [3] (setting [11]), 26 to 45%; in assay [4] (setting [13]), 46 to 75%. Besides, the “Activation of JNK in PANC-1” value in assay [5] is on record as “Y”.
Turning to `COCC1CN(c2nc(-c3nccn3C)nc3sc(-c4ccn(C(C)C)n4)c(C)c23)CCO1` (racemic) [Compound 15, 4-(6-(1-Isopropyl-1H-pyrazol-3-yl)-5-methyl-2-(1-methyl-1H-imidazol-2-yl)thieno[2,3-d]pyrimidin-4-yl)-2-(methoxymethyl)morpholine], the inhibition at 20 µM in assay [1] (setting [6]) was 76 to 100%; in assay [1] (setting [7]), 76 to 100%; in assay [2] (setting [9]) it was 76 to 100%; in assay [3] (setting [10]), 76 to 100%; in assay [3] (setting [11]), 46 to 75%; in assay [4] (setting [13]), 76 to 100%. For the same compound, the “Activation of JNK in PANC-1” value in assay [5] is given as “Y”.
In the case of `COCCO[C@H]1CC[C@@H](Nc2nc(-c3nccn3C)nc3sc(-c4ccn(C(C)C)n4)c(C)c23)C1` (racemic) [Compound 20, rac-6-(1-Isopropyl-1H-pyrazol-3-yl)-N-((1R,3S)-3-(2-methoxyethoxy)cyclopentyl)-5-methyl-2-(1-methyl-1H-imidazol-2-yl)thieno[2,3-d]pyrimidin-4-amine], the inhibition at 20 µM in assay [1] (setting [6]) lay in the range of 76 to 100%; in assay [1] (setting [7]), 76 to 100%; in assay [2] (setting [9]) it was 46 to 75%; in assay [3] (setting [10]), 76 to 100%; in assay [3] (setting [11]), 76 to 100%; in assay [4] (setting [13]) it was 46 to 75%. In addition, the “Activation of JNK in PANC-1” value in assay [5] is “Y”.
Regarding `Cc1c(-c2ccn(C(C)C)n2)sc2nc(-c3nccn3C)nc(NCC3COCCN3C)c12` (racemic) [Compound 24, rac-6-(1-Isopropyl-1H-pyrazol-3-yl)-5-methyl-2-(1-methyl-1H-imidazol-2-yl)-N-((4-methylmorpholin-3-yl)methyl)thieno[2,3-d]pyrimidin-4-amine], the inhibition at 20 µM in assay [1] (setting [6]) was in the range of 76 to 100%; in assay [1] (setting [7]), 26 to 45%; in assay [2] (setting [9]) it was 46 to 75%; in assay [3] (setting [10]), 76 to 100%; in assay [3] (setting [11]) it was 46 to 75%; in assay [4] (setting [13]), 76 to 100%. For the same compound, the “Activation of JNK in PANC-1” value in assay [5] was “Y”.
Regarding `Cc1c(-c2ccn(C(C)C)n2)sc2nc(-c3nccn3C)nc(NCC3CN(C)CCO3)c12` (racemic) [Compound 25, rac-6-(1-Isopropyl-1H-pyrazol-3-yl)-5-methyl-2-(1-methyl-1H-imidazol-2-yl)-N-((4-methylmorpholin-2-yl)methyl)thieno[2,3-d]pyrimidin-4-amine], the inhibition at 20 µM in assay [1] (setting [6]), in assay [1] (setting [7]), in assay [2] (setting [9]), in assay [3] (setting [10]), in assay [3] (setting [11]) and in assay [4] (setting [13]) was 76 to 100% throughout. Moreover, the “Activation of JNK in PANC-1” value in assay [5] was “Y”.
Turning to `Cc1c(-c2ccn(C(C)C)n2)sc2nc(-c3nccn3C)nc(NCC3CCCO3)c12` (racemic) [Compound 26, rac-6-(1-Isopropyl-1H-pyrazol-3-yl)-5-methyl-2-(1-methyl-1H-imidazol-2-yl)-N-((tetrahydrofuran-2-yl)methyl)thieno[2,3-d]pyrimidin-4-amine], the inhibition at 20 µM fell in the range of 76 to 100% in assay [1] (setting [6]); 76 to 100% in assay [1] (setting [7]); 76 to 100% in assay [2] (setting [9]); 76 to 100% in assay [3] (setting [10]); 76 to 100% in assay [3] (setting [11]); 46 to 75% in assay [4] (setting [13]). Besides, the “Activation of JNK in PANC-1” value in assay [5] is on record as “Y”.
